Measurements published in US7601511B2, “Biotin-facilitated transport in gram negative bacteria” (priority 2003, dated 2009).

Assays:
E. coli MG1655 = assay: Effect of added compounds on uptake of biotinylated peptide (competition / block); format: cell-based, Escherichia coli; conditions: 31 amino acid peptide, sampled after 10 minutes
Method: (§1) Uptake assays. Minimal 37° C. overnights were diluted into fresh minimal media and incubated at 37° C. until they reached an OD550 of 0.5. The 10 and 31 amino acid randomized biotinylated peptides were added to the media at a concentration of 1 μg per mL of culture. After addition of the peptide to the culture, 1 mL aliquots were extracted at time intervals up to an hour, washed twice of extracellular peptide using fresh minimal media, then boiled with SDS-PAGE gradient sample buffer. Samples were run on a 10-16% tricine gradient gel (Schägger et al., 1987, Anal. Biochem. 166:368-379) and transferred to nitrocellulose membranes. The resulting Western blots were treated with NeutrAvidin Horseradish Peroxidase Conjugate and SuperSignal West Dura Extended Duration Chemiluminescent Substrate. The membranes were incubated for 5-10 minutes then exposed to X-ray film for 1-10 minutes. Bands on the film were quantified using the AlphaEase 5.5 Densitometry ProGram from Alpha Innotech.
(§2) One mL samples were extracted 10 minutes after the addition of the peptide and analyzed by SDS PAGE as previously described.

S. aureus = assay: Effect of added biotin on uptake of biotinylated peptide (competition); format: cell-based, Staphylococcus aureus; conditions: 31 amino acid peptide; equimolar or 10× equimolar amounts, added five minutes before peptide
Method: as §1, §2

[1] = equimolar or 10× equimolar amounts, added five minutes before peptide

Molecule	effect on uptake of biotinylated peptide in E. coli (E. coli MG1655; [1])	effect on uptake of biotinylated peptide in S. aureus (S. aureus)	effect on uptake of biotinylated peptide in E. coli (E. coli MG1655; CCCP 50 μM added prior to peptide)
bovine serum albumin: similarly sized protein used as control	no effect		
O=C(O)CCCC[C@@H]1SC[C@@H]2NC(=O)N[C@@H]21 [biotin]	could be blocked	no effect	
avidin: protein known to tightly bind biotin, purchased from Sigma	could competitively inhibit		
N#CC(C#N)=NNc1cccc(Cl)c1 [CCCP, carbonyl cyanide m-chlorophenylhydrazone]			uptake is blocked
Cc1ncc(C[n+]2csc(CCO)c2C)c(N)n1 [thiamine]	no effect		
